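Dose response: 5 concentrations. Exposure: 48 h. Format: 96-well plates. Endpoint: linear interpolation; highest concentration if not reached. At the GI50, growth is halved.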 Activity calls are given as the source filed them. No stated cut-off is given here; in the data, active = GI50 up to about 1.1 µM and inactive = higher.
Columns and labels:
Test in all cases: NCI anticancer screen, dose series, 48 h
ACHN = system: ACHN
BT-549 = system: BT-549
COLO 205 = system: COLO 205
HCC 2998 = system: HCC 2998
HOP-62 = system: HOP-62
HT-29 = system: HT-29
M14 = system: M14
MCF7 = system: MCF7
Malme-3M = system: Malme-3M
NCI-H522 = system: NCI-H522
OVCAR-3 = system: OVCAR-3
OVCAR-4 = system: OVCAR-4
OVCAR-8 = system: OVCAR-8
RXF 393 = system: RXF 393
SF-268 = system: SF-268
SF-539 = system: SF-539
SK-MEL-28 = system: SK-MEL-28
SNB-19 = system: SNB-19
UACC-257 = system: UACC-257
UACC-62 = system: UACC-62

Measured: GI50

CN(CCN)[C@H](CSSC[C@@H](c1ccccc1O)N(C)CCN)c1ccccc1O
inactive: ACHN 10.1 µM | BT-549 9.95 µM | COLO 205 24.8 µM | HCC 2998 12 µM | HOP-62 12.1 µM | HT-29 9.55 µM | M14 13.5 µM | MCF7 14.9 µM | Malme-3M 16.3 µM | NCI-H522 16.5 µM | OVCAR-3 8.38 µM | OVCAR-4 14.1 µM | OVCAR-8 9.04 µM | RXF 393 18.9 µM | SF-268 12.4 µM | SF-539 15.1 µM | SK-MEL-28 14.3 µM | SNB-19 12.1 µM | UACC-257 14.9 µM | UACC-62 10 µM

CC1=NN(C(=O)CC(=O)Nc2cccc(Cl)c2)C(=O)C1/N=N/c1ccc(C(=O)O)cc1 (stereo not given)
inactive: ACHN > 100 µM | BT-549 > 100 µM | COLO 205 > 100 µM | HCC 2998 > 100 µM | HOP-62 > 100 µM | HT-29 > 100 µM | M14 > 100 µM | MCF7 > 100 µM | Malme-3M > 100 µM | NCI-H522 > 100 µM | OVCAR-3 > 100 µM | OVCAR-4 > 100 µM | OVCAR-8 > 100 µM | RXF 393 > 100 µM | SF-268 > 100 µM | SF-539 > 100 µM | SK-MEL-28 > 100 µM | SNB-19 > 100 µM | UACC-257 > 100 µM | UACC-62 > 100 µM

CCCCC/C(=N\c1[nH]nnc1C(N)=O)OCC
inactive: ACHN > 100 µM | BT-549 > 100 µM | COLO 205 > 100 µM | HCC 2998 > 100 µM | HOP-62 > 100 µM | HT-29 > 100 µM | M14 > 100 µM | MCF7 > 100 µM | Malme-3M > 100 µM | NCI-H522 > 100 µM | OVCAR-3 > 100 µM | OVCAR-4 > 100 µM | OVCAR-8 > 100 µM | RXF 393 > 100 µM | SF-268 > 100 µM | SF-539 > 100 µM | SK-MEL-28 > 100 µM | SNB-19 > 100 µM | UACC-257 > 100 µM | UACC-62 > 100 µM

CC(=O)O[C@H]1CC[C@@]2(C)C(=CC[C@H]3[C@@H]4C[C@H](N5CCCC5)[C@H](OC(C)=O)[C@@]4(C)CC[C@@H]32)C1
inactive: ACHN > 100 µM | BT-549 > 100 µM | COLO 205 > 100 µM | HCC 2998 > 93.3 µM | HOP-62 > 100 µM | HT-29 21.7 µM | M14 18.2 µM | MCF7 > 100 µM | Malme-3M 33.7 µM | NCI-H522 > 100 µM | OVCAR-3 > 86.3 µM | OVCAR-4 > 100 µM | OVCAR-8 > 100 µM | RXF 393 > 100 µM | SF-268 > 100 µM | SF-539 29.3 µM | SK-MEL-28 39.8 µM | SNB-19 > 100 µM | UACC-257 38 µM | UACC-62 > 56.1 µM

c1ccc(-c2cc3[nH]c4ccccc4[nH]c-3cc(-c3ccccc3)nn2)cc1
inactive: ACHN 24.9 µM | BT-549 > 100 µM | COLO 205 > 100 µM | HCC 2998 40 µM | HOP-62 26.3 µM | HT-29 50.9 µM | M14 > 100 µM | MCF7 51.3 µM | Malme-3M 62.4 µM | NCI-H522 71 µM | OVCAR-3 22.7 µM | OVCAR-4 56.2 µM | OVCAR-8 54.2 µM | RXF 393 76.9 µM | SF-268 53 µM | SF-539 39.6 µM | SK-MEL-28 > 100 µM | SNB-19 41.6 µM | UACC-257 > 100 µM | UACC-62 > 100 µM

Cc1cc(NS(=O)(=O)c2ccc(Nc3c4ccccc4nc4ccc(C(=O)Nc5ccc(S(=O)(=O)N=C(N)N)cc5)cc34)cc2)no1
inactive: ACHN > 100 µM | BT-549 > 100 µM | COLO 205 > 100 µM | HCC 2998 > 100 µM | HOP-62 > 100 µM | HT-29 > 100 µM | M14 > 100 µM | MCF7 > 100 µM | Malme-3M > 100 µM | NCI-H522 > 100 µM | OVCAR-3 > 100 µM | OVCAR-4 > 100 µM | OVCAR-8 > 100 µM | RXF 393 > 100 µM | SF-268 > 100 µM | SF-539 > 100 µM | SK-MEL-28 > 100 µM | SNB-19 > 100 µM | UACC-257 > 100 µM | UACC-62 > 100 µM

CCOP(=O)(OCC)/C(C#N)=C/c1cnc[nH]1
inactive: ACHN > 100 µM | BT-549 > 100 µM | COLO 205 > 100 µM | HCC 2998 > 100 µM | HOP-62 > 100 µM | HT-29 > 100 µM | M14 > 100 µM | MCF7 > 100 µM | Malme-3M > 100 µM | NCI-H522 > 100 µM | OVCAR-3 > 100 µM | OVCAR-4 > 100 µM | OVCAR-8 > 100 µM | RXF 393 > 100 µM | SF-268 > 100 µM | SF-539 > 100 µM | SK-MEL-28 > 100 µM | SNB-19 > 100 µM | UACC-257 > 100 µM | UACC-62 > 100 µM

CC1=CC(C)C(C)N(CCNS(=O)(=O)c2ccc(C)cc2)c2ccccc21 (stereo not given)
inactive: ACHN 15.8 µM | BT-549 17.1 µM | COLO 205 12.8 µM | HCC 2998 16.4 µM | HOP-62 16.3 µM | HT-29 12.5 µM | M14 12.3 µM | MCF7 14.2 µM | Malme-3M 14.1 µM | NCI-H522 18.2 µM | OVCAR-3 12.5 µM | OVCAR-4 13.3 µM | OVCAR-8 14.6 µM | RXF 393 12.1 µM | SF-268 13 µM | SF-539 13.4 µM | SK-MEL-28 12.9 µM | SNB-19 > 31.6 µM | UACC-257 16.1 µM | UACC-62 12.2 µM

COC(=O)c1cc(C)ccc1C1CN=NC12Cc1ccc(C)cc1C2=O (stereo not given)
inactive: ACHN 38.6 µM | BT-549 30.1 µM | COLO 205 15.8 µM | HCC 2998 31.4 µM | HOP-62 > 100 µM | HT-29 41.5 µM | M14 38.3 µM | MCF7 29.9 µM | Malme-3M 25.1 µM | NCI-H522 32.6 µM | OVCAR-3 36.3 µM | OVCAR-4 20 µM | OVCAR-8 56.4 µM | RXF 393 59.6 µM | SF-268 32.7 µM | SF-539 60.4 µM | SK-MEL-28 > 100 µM | SNB-19 55.2 µM | UACC-257 34.3 µM | UACC-62 54.7 µM

Oc1cccc2ccc(SSc3ccc4cccc(O)c4n3)nc12
inactive: ACHN 15.1 µM | BT-549 21.1 µM | COLO 205 18.8 µM | HCC 2998 5.56 µM | HOP-62 17.7 µM | HT-29 18.7 µM | M14 16 µM | MCF7 5.89 µM | Malme-3M 16 µM | NCI-H522 15.8 µM | OVCAR-3 16.1 µM | OVCAR-4 16.1 µM | OVCAR-8 19.1 µM | RXF 393 16 µM | SF-268 25.3 µM | SF-539 19.8 µM | SK-MEL-28 20.7 µM | SNB-19 > 100 µM | UACC-257 20.2 µM | UACC-62 17.4 µM
